According to paper PMC7769561, “Antileishmanial activity of synthetic analogs of the naturally occurring quinolone alkaloid N-methyl-8-methoxyflindersin” (PLoS ONE, 2020):
In brackets after ≈: the same amount, converted by molar mass. Several values for one entry are separate records, joined by “and”; a condition that tells them apart may be missing. Equal values may be shown once. Entries after “also recorded” stand apart in the source; their conditions may differ. Read-outs that look alike come from different tables or passages of the source.

Experiments:
[1] = test system: L. (V.) panamensis intracellular amastigotes; assay: Antileishmanial activity in L. (V.) panamensis intracellular amastigotes in hMDMs; assay type: cell-based, Leishmania (Viannia) panamensis; conditions: for SI (selectivity index = CC50/EC50): CC50 hMDMs / EC50 intracellular amastigotes; for EC50 Intracellular amastigotes: amastigotes in hMDMs, 72 h, ± SD
Procedure: Next, 100 μL of the suspension was cultured in 96-well plates and infected with L. (V.) panamensis promastigotes (HMOM/COL/87/UA-140) at a 10:1 parasite:cell ratio. We incubated the plates in a 5% CO2 atmosphere for 4 h at 35°C. After incubation, we removed noninternalized parasites by washing the cells with 0.9% NaCl saline solution (Baxter International, Deerfield, IL, USA). The cells were incubated again for 24 h and then treated with each quinoline alkaloid–like compound at a concentration of 100, 10, 1, 0.1, and 0.01 μg/mL in a 5% CO2 atmosphere for 72 h at 36°C. Next, we quantified the percentage of infected cells using fluorescence microscopy, as previously described by Pérez-Cordero in 2011 [23], and quantified the parasite load (amount of intracellular promastigotes and amastigotes per cell) using Giemsa staining and flow cytometry (Cytomics FC 500 MPL; Beckman Coulter, Brea, CA, USA). […] Results were expressed as EC50 using Prism GraphPad software’s probit nonlinear regression analysis (https://www.graphpad.com/scientific-software/prism/).
(§1) We used GraphPad Prism nonlinear regression analysis to estimate the percentage mortality with regard to CC50 and EC50. […] The antileishmanial activity with regard to promastigotes was classified as active according to Eq 2: Active=EC50<[LC50/2], (2) where LC50 is the median lethal concentration. We also used GraphPad Prism nonlinear regression analysis to determine the intracellular antileishmanial activity (concentration vs. response), depending on the infection (number of infected cells) and parasite burden (number of parasites/cell) obtained in experimental conditions. Parasite inhibition was estimated using Eq 3, where the plate MFI is 100% parasites: Infectioninhibition(%)=100−[(MIFexposedparasites/MIFunexposedparasites×100)] (3)
The percentage inhibition was used to calculate EC50 by nonlinear regression analysis (fluorescence microscopy), while the parasite burden was evaluated as the percentage of intracellular promastigotes and amastigotes in 100 infected cells (Giemsa staining). […] The selectivity index (SI) was estimated using the following formula: SI=CC50/EC50

[2] = test system: L. (V.) panamensis promastigotes; assay: Antileishmanial activity in L. (V.) panamensis promastigotes (resazurin, 72 h); assay type: cell-based, Leishmania (Viannia) panamensis
Procedure: They were treated with quinoline alkaloid–like compounds at a concentration of 100, 10, 1, 0.1, and 0.01 μg/mL for 72 h at 26°C. Next, we determined antileishmanial activity using the resazurin method (Sigma-Aldrich). Promastigotes treated with amphotericin B (Sigma-Aldrich) and pentamidine (Sanofi-Aventis, Gentilly, France) were used as parasite death (positive) controls. Results were expressed as the medial effective concentration (EC50) using Prism GraphPad software for nonlinear regression analysis (https://www.graphpad.com/scientific-software/prism/).
(§2) All assays required at least three independently duplicated experiments. We determined cytotoxicity against hMDMs and effectivity in L. (V) panamensis promastigotes according to each treatment’s mortality (compound and concentration) using Eq 1, where the control mean fluorescence intensity (MFI) was 100% viability: Validityinhibition(%)=100−[MIFexposedcells/MIFunexposedcells×100] (1)
as §1

hMDMs = assay: Cytotoxicity in hMDMs (resazurin, 72 h); conditions: class by CC50
Procedure: (§3) We isolated hMDMs from buffy coats donated by the Institute of Local Science (Biotechnology and Health Innovation, Bogotá, Colombia) and spun them in Lymphoprep density gradient medium (Stem-Cell, Vancouver, Canada).
(§4) Next, we added 100 μL of this culture to each quinoline alkaloid–like compound at a concentration of 200, 20, 2, 0.2, and 0.02 μg/mL. […] Cells treated with amphotericin B (Sigma-Aldrich) were used as cell apoptosis (positive) controls. Results were expressed as the medial cytotoxic concentration (CC50) using Prism GraphPad software for nonlinear regression analysis (https://www.graphpad.com/scientific-software/prism/).
as §2, §1

[3] = test system: L. (V.) panamensis (MHOM/COL/87/UA140-EGFP); assay: Therapeutic in vivo response in hamsters with experimental cutaneous leishmaniasis; parameters: species or system golden hamster (Mesocrisetus auratus)
From the text: We used a golden hamster (Mesocrisetus auratus) model to evaluate the therapeutic response of synthetic alkaloid compounds 2 and 8. Male and female 6-week-old hamsters with a mean live weight (LW) of 120 g were infected by a dorsal intradermic injection of L. (V.) panamensis (MHOM/COL/87/UA140-EGFP) promastigotes. After the infected hamsters developed ulcers, they were randomly divided into three groups (n = 6 each) and treated topically with 1% ointment formulated from compounds 2 and 8.
(§5) The hamsters were monitored every 4 weeks to assess their appearance and weight and the lesion size. We categorized each compound’s effectiveness pre- and posttreatment as follows: (i) cure (complete disappearance of lesions), (ii) improvement (>10% reduced lesion area), and (iii) therapeutic failure or nonresponse (increased lesion size). The health status was monitored weekly for 3 months (12 weeks) posttreatment. After 3 months, the hamsters were euthanized in a CO2 chamber. We performed histopathological analysis after necropsy of the affected tissues and organs. In addition, we evaluated treatment cytotoxicity using LW monitoring and biochemical parameters (alanine aminotransferase [ALT], creatinine, and blood urea nitrogen [BUN]) pretreatment and 45 days after ointment administration.
The in vivo efficacy of compounds 1, 2, and 8 was expressed as a percentage cure, improvement, or nonresponse compared to the beginning of treatment. Efficacy was evaluated in vivo to compare percentages, the frequency of change, and treatment cytotoxicity in the hamster model. We used GraphPad Prism to determine ROS and NO production and the apoptotic cell percentage. One- or two-way analysis of variance (ANOVA; response–time kinetics) was used to compare treatments after confirming normal data distribution. P < 0.05 was considered statistically significant by comparing untreated cells (experiments on untreated hMDMs) with infected cells (experiments on untreated and treated hMDMs).

[4] = test system: L. (V.) panamensis-infected hMDMs; assay: Transmission electron microscopy of L. (V.) panamensis-infected hMDMs; assay type: cell-based, human; conditions: compound at EC50, 72 h, TEM; on Cell membrane (ultrastructural modification grade): key: -: no alteration/absence; +: low alteration/low presence; ++: alteration/moderate presence; +++: serious disturbance/abundant presence; on LB (lipid bodies, grade): key: -: no alteration/absence; +: low alteration/low presence; ++: alteration/moderate presence; +++: serious disturbance/abundant presence; on Mitochondria (ultrastructural modification grade): key: -: no alteration/absence; +: low alteration/low presence; ++: alteration/moderate presence; +++: serious disturbance/abundant presence; on Nucleus (ultrastructural modification grade): key: -: no alteration/absence; +: low alteration/low presence; ++: alteration/moderate presence; +++: serious disturbance/abundant presence
From the text: (§6) This procedure involved including fresh resin and 100–200-nm-wide ultrafine cuts observed by TEM (100X–10.000X) (HITACHI-HU-12; Hitachi, Tokyo, Japan).

[5] = test system: L. (V.) panamensis intracellular amastigotes; assay: Transmission electron microscopy of L. (V.) panamensis intracellular amastigotes in hMDMs; assay type: cell-based, Leishmania (Viannia) panamensis; parameters: Nucleus (ultrastructural alteration grade) / Vacuoles (ultrastructural alteration grade): key: -: no alteration/absence; +: low alteration/low presence; ++: alteration/moderate presence; +++: serious disturbance/abundant presence; conditions: compound at EC50, 72 h, TEM
From the text: as §6

[6] = test system: L. (V.) panamensis-infected hMDMs; assay: NO production in L. (V.) panamensis-infected hMDMs (DAF-FM flow cytometry); assay type: cell-based, human; conditions: compound at EC50, 24, 48 and 72 h
Procedure: (§7) Next, we detached the cells with ethylenediaminetetraacetic acid (EDTA)/trypsin (Lonza, MD, USA) and 2',7'-dichlorodihydrofluorescein diacetate (H2DCFDA) tagged on a 5 μM fluorescent tube (Sigma-Aldrich) in order to identify intracellular ROS and/or 4-amino-5-methylamino-2′,7′-difluorofluorescein (DAF-FM; Sigma-Aldrich) for NO production in a 5% CO2 atmosphere for 45 min at 37°C. ROS and NO were quantified using flow cytometry (FACS Canto II) at a wavelength of 480 nm. Untreated cells were used as negative controls, while cells treated with 0.0001% H2O2 and 1 μM phorbol myristate acetate were used as ROS production (positive) controls. LPS (10 ng/mL) and phytohemagglutinin (PHA-M) (10 μL/mL) (Invitrogen) were used as positive controls for NO production.

[7] = test system: L. (V.) panamensis-infected hMDMs; assay: ROS generation in L. (V.) panamensis-infected hMDMs (H2DCFDA flow cytometry); assay type: cell-based, human; conditions: compound at EC50, 4, 24, 48 and 72 h
Procedure: as §7

[8] = Treatment toxicity in hamsters (live weight, ALT, creatinine, BUN); assay type: in vivo, golden hamster (Mesocrisetus auratus)
From the text: as §5

[9] = Cytotoxicity in hMDMs (resazurin, 72 h); conditions: human
Procedure: as §3, §4, §2, §1

[10] = L. (V.) panamensis promastigotes, ± SD
[11] = L. (V.) panamensis promastigotes, ± SD, read-out: EC50 Intracellular promastigotes (converted)
[12] = hamsters, topical 1% ointment, 3 months posttreatment, n = 6

CCCc1c(CC)nc2ccccc2c1C(=O)O [Compound 3, carboxylic acid 2-ethyl-3-propyl-4-quinolinine]
SI (selectivity index = CC50/EC50) [1]: 1.27 | EC50 Intracellular amastigotes [1]: 121.9 ± 6.2 µg/mL (≈ 501 µM) | EC50 Intracellular promastigotes [2, 10]: 93.8 ± 6.3 µg/mL (≈ 386 µM) | EC50 [2, 11]: 496 µM | Cytotoxicity class toward hMDMs (hMDMs): moderate (moderate if CC50 from 100 to <200 μg/mL)

COc1ccc2c(OC)c3ccoc3nc2c1OC [Compound 5, 4,7,8-trimetoxifure [2,3-b]-quinoline]
SI (selectivity index = CC50/EC50) [1]: 1.73 | EC50 Intracellular amastigotes [1]: 61.7 ± 1.1 µg/mL (≈ 238 µM) | EC50 Intracellular promastigotes [2, 10]: 66.4 ± 13 µg/mL (≈ 256 µM) | EC50 [2, 11]: 256 µM

COc1ccccc1-c1cc(C(=O)O)c2ccc(C)c(C)c2n1 [Compound 6, carboxylic acid-7,8-tetrahydro-quinoline]
SI (selectivity index = CC50/EC50) [1]: 1.89 | EC50 Intracellular amastigotes [1]: 46.5 ± 9.4 µg/mL (≈ 151 µM) | EC50 Intracellular promastigotes [2, 10]: 61.3 ± 29.6 µg/mL (≈ 199 µM) | EC50 [2, 11]: 240 µM

Cc1cc2ncccc2c2nc(N)n(C)c12 [Compound 7, 3,4-dimethyl-3H-imidazol [4.5f]-quinoline-2-amine]
SI (selectivity index = CC50/EC50) [1]: 1.70 | EC50 Intracellular amastigotes [1]: 55.8 ± 8.3 µg/mL (≈ 263 µM) | EC50 Intracellular promastigotes [2, 10]: 26.5 ± 5.8 µg/mL (≈ 125 µM) | EC50 [2, 11]: 134 µM

Nc1ccc2cccc(O)c2n1 [Compound 8, 2-amino-8-hydroxyquinoline]
Histopathologic analysis of the skin, cured hamsters ([3]; hamsters cured by treatment, hematoxylin/eosin): mixed leucocyte infiltratation | Lesion size during treatment ([3]; hamsters, topical 1% ointment): significantly reduced lesions | Improvement (reduced lesion size), percentage of the experimental group [3, 12]: 50% | No effect (poor response), percentage of the experimental group [3, 12]: 16.6% | Total cure (healing), percentage of the experimental group [3, 12]: 33.3% | Antileishmanial activity class ([1]; intracellular amastigotes, class by EC50): high (high if EC50 < 25 μg/mL) | Cell membrane (ultrastructural modification grade) [4]: - | LB (lipid bodies, grade) [4]: - | Mitochondria (ultrastructural modification grade) [4]: + | Nucleus (description) [4]: Abnormal distribution of chromatin; also recorded: Nuclear membrane alteration | Nucleus (ultrastructural modification grade) [4]: +++ | PV (description) [4]: Individuals, attached to the parasite | PV (parasitophorous vacuoles, grade) [4]: + | Parasites (grade) [4]: + | Vacuoles (description) [4]: Double membrane (autophagic-digestives) | Vacuoles (ultrastructural modification grade) [4]: +++ | EC50 ([2]; read-out: EC50 Intracellular promastigotes): 1.6 µg/mL and 10 µM | Cell membrane (ultrastructural alteration grade) [5]: - | Flagellum (flagellar/axonema pocket) (description) [5]: Membrane swelling | Flagellum (flagellar/axonema pocket) (grade) [5]: +++ | LB (lipid bodies, grade) [5]: - | Mitochondria/Kinetoplasts (description) [5]: Membrane swelling | Mitochondria/Kinetoplasts (ultrastructural alteration grade) [5]: +++ | Nucleus (description) [5]: Abnormal distribution of chromatine | Nucleus (ultrastructural alteration grade) [5]: ++ | PV (description) [5]: Individuals attached to the parasite | PV (parasitophorous vacuoles, grade) [5]: + | Vacuoles (description) [5]: Double membrane (autophagic-digestives) | Vacuoles (ultrastructural alteration grade) [5]: +++ | NO production compared to untreated infected hMDMs [6]: do not modulate the induction of NO production | ROS generation compared to infected control cells [7]: no significant variations | Serum BUN level ([8]; compared to before treatment): significantly decreased | Cytotoxicity-related clinical manifestations ([8]; topical 1% ointment): No cytotoxicity-related clinical manifestations | Live weight posttreatment ([8]; topical 1% ointment): no evident changes during treatment | CC50 at 72 h [9]: 5.5 µg/mL and 34 µM | Cytotoxicity class toward hMDMs (hMDMs): high (high if CC50 < 100 μg/mL)
